Experimental data as given in publication PMC10303271, “Synthesis and Receptor Binding Studies of α5 GABAAR Selective Novel Imidazodiazepines Targeted for Psychiatric and Cognitive Disorders” (Molecules, 2023).
Read-outs that look alike come from different tables or passages of the source.

How the values were obtained:
Alpha7 = test: PDSP primary binding Alpha7; settings: primary binding, 10,000 nM; last figure of the line = mean of the 4 before it
Description: (§1) To determine if any off-target receptor-binding effects are present, all the novel ligands were sent to the National Institute of Mental Health (NIMH), Psychoactive Drug Screening Program (PDSP). The ligands were screened over a panel of 47 receptors, ion channels, and transporters to determine any other possible interactions with […]. The hERG-binding was also determined. […] No binding of the test compounds to calcium channels was observed. […] It is necessary to screen the compounds for hERG-binding during the early process of drug discovery. The unintentional binding of many drugs to hERG can cause blockade of hERG K+ channels in the heart, which can cause many side effects including cardiac arrhythmias and sudden death. […] All of the α5 imidazodiazepines were tested for hERG-binding.
(§2) The NIMH PDSP assay protocol book [https://kidbdev.med.unc.edu/databases/PDSP%20Protocols%20II%202013-03-28.pdf accessed on 23 April 2023]. describes the protocols for primary and secondary radio-ligand binding assays. These assays were carried out in a final volume of 125 µL per well in the appropriate binding buffer.
(§3) The binding of a ligand to a receptor, ion channel, or transporter was determined in the […] of 10 µM of the appropriate reference compound. […] Plates were incubated in the dark for 90 min at rt, and the reactions were stopped by vacuum filtration onto 0.3% polyethyleneimine (PEI) soaked 96-well filter mats using a 96-well Filtermateharvester. This was followed by three washes with cold PBS buffer. Radioactivity was then counted on a Microbeta counter. Nonlinear regression was used to analyze the data with N = 6 replicates.

V1A = target: T1, V1A (Homo sapiens, UniProt P37288); test: PDSP primary binding V1A; settings: primary binding, 10,000 nM; last figure of the line = mean of the 4 before it; read-out: V1A, PDSP raw data, mean
T1 construct: purchased NIMH Psychoactive Drug Screening Program (PDSP)
Description: as §1, §2, §3

BZP rat brain site = test: PDSP binding at BZP rat brain site; settings: for Ki: N = 2, read-out: Binding Affinity BZR Secondary Screening Ki; for Ki / Binding Affinity BZR % Inhibition (Primary): rat brain; for Binding Affinity BZR % Inhibition (Primary): at 10,000 nM, N = 5; for BZP Rat Brain Site, PDSP raw data, mean: primary binding, 10,000 nM, last figure of the line = mean of the 4 before it
Description: The BZR binding affinity of the test compounds was also measured using rat brain BzR. […] The efficacy of imidazodiazepines on the benzodiazepine receptor depends on various factors, including the specific subtype of the receptor they bind to, their chemical structure, and the dose.
as §2, §3

Alpha3Beta4 = target: T2, Alpha3Beta4 (Rattus norvegicus, UniProt P04757+P12392); test: PDSP primary binding Alpha3Beta4; settings: primary binding, 10,000 nM; last figure of the line = mean of the 4 before it; read-out: Alpha3Beta4, PDSP raw data, mean
T2 construct: purchased NIMH Psychoactive Drug Screening Program (PDSP)
Description: as §1, §2, §3

HCA2 = target: T3, HCA2 (Homo sapiens, UniProt Q8TDS4); test: PDSP primary binding HCA2; settings: primary binding, 10,000 nM; last figure of the line = mean of the 4 before it; read-out: HCA2, PDSP raw data, mean
T3 construct: purchased NIMH Psychoactive Drug Screening Program (PDSP)
Description: as §1, §2, §3

DOR = target: T4, DOR (Homo sapiens, UniProt P41143); test: PDSP radioligand binding at DOR
T4 construct: purchased NIMH Psychoactive Drug Screening Program (PDSP)
Description: Opioid receptors are a family of inhibitory G-coupled protein receptors where opioids act as the ligand. The kappa opioid receptors (KOR), µ and δ opioid receptors (MOR and DOR), and nociception opioid receptor (NOP) fall under the family of opioids receptors. It has been reported that oxadiazole imidazodiazepines can mediate analgesic and anti-inflammatory properties mediated also by the κ opioid receptor (KOR). The binding at KOR is usually silent. The affinities of the test compounds for KOR, DOR, and MOR were determined using radioligand binding assays at a screening concentration of 10,000 nM in collaboration with the National Institute of Mental Health’s Psychoactive Drug Screening Program (PDSP), as mentioned before. Concentration-dependent experiments were conducted to determine Ki values for the compounds that exceeded more than 50% radioligand displacement in primary binding assays.
as §2, §3

Ca channel human = test: PDSP primary binding Ca channel; settings: primary binding, 10,000 nM; last figure of the line = mean of the 4 before it
Description: as §1, §2, §3

M3D = target: T5, M3D (Homo sapiens, UniProt P20309, A239G/Y149C); test: PDSP primary binding M3D; settings: primary binding, 10,000 nM; last figure of the line = mean of the 4 before it; read-out: M3D, PDSP raw data, mean
T5 construct: purchased NIMH Psychoactive Drug Screening Program (PDSP)
Description: as §1, §2, §3

5-HT2B = target: T6, 5-HT2B (Homo sapiens, UniProt P41595); test: PDSP primary binding 5-HT2B; settings: 1.5 h; primary binding, 10,000 nM; last figure of the line = mean of the 4 before it; read-out: 5-HT2B, PDSP raw data, mean
T6 construct: purchased NIMH Psychoactive Drug Screening Program (PDSP)
Description: as §1, §2, §3

Beta2 = target: T7, Beta2 (Homo sapiens, UniProt P07550); test: PDSP primary binding Beta2; settings: 1.5 h; primary binding, 10,000 nM; last figure of the line = mean of the 4 before it; read-out: Beta2, PDSP raw data, mean
T7 construct: purchased NIMH Psychoactive Drug Screening Program (PDSP)
Description: as §1, §2, §3

M3 = target: T8, M3 (Homo sapiens, UniProt P20309); test: PDSP primary binding M3; settings: primary binding, 10,000 nM; last figure of the line = mean of the 4 before it; read-out: M3, PDSP raw data, mean
T8 construct: purchased NIMH Psychoactive Drug Screening Program (PDSP)
Description: as §1, §2, §3

A1 = target: T9, A1 (Homo sapiens, UniProt P30542); test: PDSP primary binding A1; settings: 1.5 h; primary binding, 10,000 nM; last figure of the line = mean of the 4 before it; read-out: A1, PDSP raw data, mean
T9 construct: purchased NIMH Psychoactive Drug Screening Program (PDSP)
T9 sequence (P30542 1-326): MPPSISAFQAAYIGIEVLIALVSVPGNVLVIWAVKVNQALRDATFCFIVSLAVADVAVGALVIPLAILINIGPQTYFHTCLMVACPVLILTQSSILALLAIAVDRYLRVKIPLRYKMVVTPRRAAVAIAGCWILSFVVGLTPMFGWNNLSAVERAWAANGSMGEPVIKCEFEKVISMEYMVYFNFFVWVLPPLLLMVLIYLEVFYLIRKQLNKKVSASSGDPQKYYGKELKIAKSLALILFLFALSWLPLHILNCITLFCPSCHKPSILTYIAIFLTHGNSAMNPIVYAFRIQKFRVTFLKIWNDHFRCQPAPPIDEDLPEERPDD
Description: as §1, §2, §3

H4 = target: T10, H4 (Homo sapiens, UniProt Q9H3N8); test: PDSP primary binding H4; settings: primary binding, 10,000 nM; last figure of the line = mean of the 4 before it; read-out: H4, PDSP raw data, mean
T10 construct: purchased NIMH Psychoactive Drug Screening Program (PDSP)
Description: as §1, §2, §3

[1] = at 10,000 nM, N = 5, [3H]-DADLE 2.69 nM, read-out: Primary Binding %DOR
[2] = primary binding, 10,000 nM, last figure of the line = mean of the 4 before it, read-out: DOR, PDSP raw data, mean

T10 sequence (Q9H3N8 whole entry): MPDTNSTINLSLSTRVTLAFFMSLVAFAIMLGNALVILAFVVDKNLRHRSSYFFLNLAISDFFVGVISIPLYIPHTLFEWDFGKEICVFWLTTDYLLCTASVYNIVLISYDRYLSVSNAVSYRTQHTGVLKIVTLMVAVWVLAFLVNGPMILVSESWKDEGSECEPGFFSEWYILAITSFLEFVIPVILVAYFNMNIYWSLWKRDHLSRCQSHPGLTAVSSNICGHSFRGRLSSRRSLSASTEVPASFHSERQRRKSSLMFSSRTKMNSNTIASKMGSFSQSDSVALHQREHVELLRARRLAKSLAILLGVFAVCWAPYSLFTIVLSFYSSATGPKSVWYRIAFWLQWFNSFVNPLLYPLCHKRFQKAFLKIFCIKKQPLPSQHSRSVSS
T5 sequence (P20309 whole entry Y149C/A239G): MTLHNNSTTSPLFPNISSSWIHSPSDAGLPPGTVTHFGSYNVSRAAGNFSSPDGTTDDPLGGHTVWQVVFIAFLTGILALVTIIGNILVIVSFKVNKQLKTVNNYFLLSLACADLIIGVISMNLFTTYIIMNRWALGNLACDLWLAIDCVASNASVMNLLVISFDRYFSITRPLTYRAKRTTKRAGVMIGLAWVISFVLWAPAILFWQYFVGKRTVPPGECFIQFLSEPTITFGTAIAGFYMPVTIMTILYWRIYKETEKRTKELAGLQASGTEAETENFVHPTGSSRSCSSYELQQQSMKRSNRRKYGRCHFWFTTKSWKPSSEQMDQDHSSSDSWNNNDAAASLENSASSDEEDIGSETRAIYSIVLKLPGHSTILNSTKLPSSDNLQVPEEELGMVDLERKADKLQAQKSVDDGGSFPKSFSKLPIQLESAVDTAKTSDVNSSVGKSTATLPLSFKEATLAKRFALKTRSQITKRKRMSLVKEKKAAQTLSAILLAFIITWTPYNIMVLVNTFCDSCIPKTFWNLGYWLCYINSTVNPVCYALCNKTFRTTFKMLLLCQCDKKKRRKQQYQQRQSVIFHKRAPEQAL
T6 sequence (P41595 whole entry): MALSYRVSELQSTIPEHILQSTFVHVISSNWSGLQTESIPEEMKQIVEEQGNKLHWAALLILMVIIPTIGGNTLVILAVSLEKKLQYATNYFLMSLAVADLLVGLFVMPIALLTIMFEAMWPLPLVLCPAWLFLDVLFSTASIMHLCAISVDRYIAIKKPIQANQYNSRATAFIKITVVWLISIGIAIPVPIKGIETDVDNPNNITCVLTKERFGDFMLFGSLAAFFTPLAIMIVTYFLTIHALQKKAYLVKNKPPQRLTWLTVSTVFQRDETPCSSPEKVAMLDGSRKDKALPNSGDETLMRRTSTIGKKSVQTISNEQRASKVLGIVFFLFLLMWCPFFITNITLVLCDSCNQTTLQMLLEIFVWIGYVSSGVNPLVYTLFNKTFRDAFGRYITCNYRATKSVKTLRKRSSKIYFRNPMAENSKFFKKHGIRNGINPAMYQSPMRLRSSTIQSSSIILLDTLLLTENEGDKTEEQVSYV
T1 sequence (P37288 whole entry): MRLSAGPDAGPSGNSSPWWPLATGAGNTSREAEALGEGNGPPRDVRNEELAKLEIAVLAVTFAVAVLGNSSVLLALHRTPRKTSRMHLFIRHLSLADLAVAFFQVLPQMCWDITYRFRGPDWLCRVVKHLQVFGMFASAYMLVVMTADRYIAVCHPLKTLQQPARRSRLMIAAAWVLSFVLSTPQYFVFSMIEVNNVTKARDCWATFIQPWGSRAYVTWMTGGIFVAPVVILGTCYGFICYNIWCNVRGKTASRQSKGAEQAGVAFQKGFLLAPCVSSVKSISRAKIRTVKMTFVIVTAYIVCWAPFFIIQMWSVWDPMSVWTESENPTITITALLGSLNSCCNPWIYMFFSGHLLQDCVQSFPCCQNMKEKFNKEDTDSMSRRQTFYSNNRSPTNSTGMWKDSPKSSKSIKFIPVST
T4 sequence (P41143 whole entry): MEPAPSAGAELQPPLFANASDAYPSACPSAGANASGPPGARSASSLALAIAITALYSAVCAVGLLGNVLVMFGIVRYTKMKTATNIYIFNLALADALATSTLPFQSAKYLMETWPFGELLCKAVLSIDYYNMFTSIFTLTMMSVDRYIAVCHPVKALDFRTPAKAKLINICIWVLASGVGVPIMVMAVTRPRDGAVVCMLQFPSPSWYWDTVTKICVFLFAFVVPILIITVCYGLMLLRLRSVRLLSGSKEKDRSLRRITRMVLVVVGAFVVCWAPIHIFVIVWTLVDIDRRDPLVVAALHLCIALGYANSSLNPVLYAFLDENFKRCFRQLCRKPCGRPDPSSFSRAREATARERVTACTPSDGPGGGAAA
T2 sequence (P04757 26-499): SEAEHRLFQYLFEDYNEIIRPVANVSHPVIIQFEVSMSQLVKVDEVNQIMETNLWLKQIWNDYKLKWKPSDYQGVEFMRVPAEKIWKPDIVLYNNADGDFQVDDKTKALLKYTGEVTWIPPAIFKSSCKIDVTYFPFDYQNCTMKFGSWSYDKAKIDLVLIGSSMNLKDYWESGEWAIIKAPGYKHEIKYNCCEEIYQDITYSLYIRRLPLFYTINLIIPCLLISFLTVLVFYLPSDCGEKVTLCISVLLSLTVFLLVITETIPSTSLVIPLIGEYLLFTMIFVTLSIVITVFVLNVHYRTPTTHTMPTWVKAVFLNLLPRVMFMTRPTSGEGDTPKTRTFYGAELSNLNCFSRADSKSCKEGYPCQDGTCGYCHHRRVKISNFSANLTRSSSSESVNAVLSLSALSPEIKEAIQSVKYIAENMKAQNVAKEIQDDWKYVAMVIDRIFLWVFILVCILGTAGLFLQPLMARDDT
T2 sequence (P12392 21-495): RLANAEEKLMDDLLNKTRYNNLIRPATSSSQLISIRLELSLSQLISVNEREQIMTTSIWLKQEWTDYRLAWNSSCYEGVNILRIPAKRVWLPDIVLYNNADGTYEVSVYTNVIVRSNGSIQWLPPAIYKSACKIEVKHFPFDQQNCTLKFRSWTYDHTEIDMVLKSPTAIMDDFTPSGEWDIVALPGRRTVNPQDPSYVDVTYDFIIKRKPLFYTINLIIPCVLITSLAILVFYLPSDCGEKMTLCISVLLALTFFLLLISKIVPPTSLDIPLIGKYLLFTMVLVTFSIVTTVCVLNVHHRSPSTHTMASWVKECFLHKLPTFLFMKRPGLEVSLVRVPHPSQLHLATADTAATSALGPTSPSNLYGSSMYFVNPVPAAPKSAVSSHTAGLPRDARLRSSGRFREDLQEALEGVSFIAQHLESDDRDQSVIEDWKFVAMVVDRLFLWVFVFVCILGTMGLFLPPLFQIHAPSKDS
T7 sequence (P07550 whole entry): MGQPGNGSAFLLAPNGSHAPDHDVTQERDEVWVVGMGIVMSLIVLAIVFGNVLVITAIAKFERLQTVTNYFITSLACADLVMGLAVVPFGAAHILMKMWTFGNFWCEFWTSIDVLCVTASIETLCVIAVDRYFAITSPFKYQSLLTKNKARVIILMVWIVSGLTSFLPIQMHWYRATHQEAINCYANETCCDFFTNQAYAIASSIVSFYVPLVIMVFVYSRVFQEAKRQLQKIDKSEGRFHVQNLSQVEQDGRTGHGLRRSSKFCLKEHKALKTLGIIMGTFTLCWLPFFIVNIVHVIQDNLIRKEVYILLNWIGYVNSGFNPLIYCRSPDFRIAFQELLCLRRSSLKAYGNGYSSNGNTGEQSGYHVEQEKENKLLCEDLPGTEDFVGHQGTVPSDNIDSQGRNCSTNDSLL
T3 sequence (Q8TDS4 whole entry): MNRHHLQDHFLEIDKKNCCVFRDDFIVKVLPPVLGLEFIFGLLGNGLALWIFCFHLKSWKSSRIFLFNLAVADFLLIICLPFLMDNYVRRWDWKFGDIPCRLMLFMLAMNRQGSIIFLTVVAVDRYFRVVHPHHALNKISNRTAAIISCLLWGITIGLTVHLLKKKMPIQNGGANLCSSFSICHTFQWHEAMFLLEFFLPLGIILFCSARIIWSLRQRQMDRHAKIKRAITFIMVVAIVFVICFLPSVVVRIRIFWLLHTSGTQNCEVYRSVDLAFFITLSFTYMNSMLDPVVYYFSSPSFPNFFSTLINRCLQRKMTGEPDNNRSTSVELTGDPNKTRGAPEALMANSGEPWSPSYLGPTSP
T8 sequence (P20309 whole entry): as the sequence (P20309 whole entry Y149C/A239G) above, with C149Y, G239A counted along it

SMILES | Alpha7, PDSP raw data, mean (Alpha7) [%] | inhibition at 10 µM (V1A) [%] | Ki (BZP rat brain site) [nM] | Binding Affinity BZR % Inhibition (Primary) (BZP rat brain site) [%] | inhibition at 10 µM (Alpha3Beta4) [%] | inhibition at 10 µM (HCA2) [%] | inhibition at 10 µM (DOR; [1]) [%] | inhibition at 10 µM (DOR; [2]) [%] | Ca channel human, PDSP raw data, mean (Ca channel human) [%] | inhibition at 10 µM (M3D) [%] | inhibition at 10 µM (5-HT2B) [%] | inhibition at 10 µM (Beta2) [%] | inhibition at 10 µM (M3) [%] | inhibition at 10 µM (A1) [%] | inhibition at 10 µM (H4) [%] | BZP Rat Brain Site, PDSP raw data, mean (BZP rat brain site) [%]
C#Cc1ccc2c(c1)C(c1ccccn1)=N[C@@H](C)c1c(C(=O)N(C)C)ncn1-2 [Compound 31, (S)-8-Ethynyl-N,N,4-trimethyl-6-(pyridin-2′-yl)-4H-benzo[f]imidazo[1,5-a][1,4]diazepine-3-carboxamide] | -3.44 | 3.6 | 838 ± 107 | 83.57 ± 1.57 | -0.5 | 20.8 | 6.18 ± 11.2 | 6.18 | 4.19 | 6.59 | -3.38 | -0.05 | -13 | 32.2 | -12.6 | 
C#Cc1ccc2c(c1)C(c1ccccc1F)=N[C@H](C)c1c(C(=S)N(C)C)ncn1-2 [Compound 33, (R)-8-Ethynyl-6-(2′-fluorophenyl)-N,N,4-trimethyl-4H-benzo[f]imidazo[1,5-a][1,4]diazepine-3-carbothioamide] | -18.33 | 15.6 | 871 ± 8.72 |  | -0.77 | -9.82 | 13.2 ± 7.83 | 43 | 39.05 | 4.84 | 26.5 | -0.87 | 3.03 | 25.9 | 0.9 | 94.79
CCc1noc(-c2ncn3c2[C@@H](C)N=C(c2ccccc2F)c2cc(-c4ccccc4)ccc2-3)n1 [Compound 35, (R)-3-Ethyl-5-(6-(2′-fluorophenyl)-4-methyl-8-phenyl-4H-benzo[f]imidazo[1,5-a][1,4]diazepin-3-yl)-1,2,4-oxadiazole] | -23.18 | 3.9 |  | 19.91 ± 7.21 | 12 | -18.7 | 52.7 ± 4.38 | 52.7 | 61.85 | 4.49 | 13.8 | 0.34 | 9.75 | 27.1 | 54.7 | 
CCc1noc(-c2ncn3c2[C@@H](C)N=C(c2ccccc2F)c2cc(Cl)ccc2-3)n1 [Compound 36, (R)-5-(8-Chloro-6-(2′-fluorophenyl)-4-methyl-4H-benzo[f]imidazo[1,5-a][1,4]diazepin-3-yl)-3-ethyl-1,2,4-oxadiazole] | -13.86 | 27.6 | 590 ± 44.6 |  | 15.6 | -29.3 | 40.7 ± 10.2 | 40.7 | 16.74 | -2.01 | 3.47 | 2.67 | -3.98 | 67.9 | 28.9 | 81.81
